Reference: patent publication US20060058312A1, “Stabilized aqueous preparation for injection” (priority 2004, published 2006)
Like-named read-outs stand apart in the source and are kept apart here.

Columns and labels:
[1] = Change of pH value of the aqueous solution during storage; format: physicochemical; settings: aqueous solution adjusted to pH 6 to 7
[2] = Stability test at 60° C., addition amount of ascorbic acid at pH 8.7 (Example 5), HPLC content; format: physicochemical; settings: for remaining calcium levofolinate content compared with the initial value (100): 60° C.
Description: (§1) For the aqueous preparations obtained in (1) to (3) above, tests evaluating stability at 60° C./3 weeks were performed. The calcium levofolinate content remaining in the aqueous solution was measured using high performance liquid chromatography under the following conditions (the same were employed in the following experiments) 2 ml each of the test preparations were weighed, and 10 ml of the internal standard solution described below (the same was employed in the following experiments) were added thereto. Subsequently, water was added to adjust the total volume of the solution to 50 ml, thereby to prepare a test solution. Meanwhile, 62.5 mg of calcium levofolinate were dissolved in water so as to prepare a 25 ml solution. Then, to 10 ml of the resultant solution were added 10 ml of the internal standard solution, and the total volume of the solution was adjusted to 50 ml by adding water, thereby to prepare a standard solution. For 20 μl of the standard solution and the test solution, the content of calcium levofolinate was measured by the liquid chromatography method under the following conditions.
(§2) 1) Measurement Conditions • Detector: Ultraviolet absorptiometer (Measurement wavelength: 254 nm) • Column: A stainless tube having an internal diameter of 4.0 mm and a length of 15 cm was filled with 5 μm of octadecylsilylated silica gel for liquid chromatography. • Column temperature: A constant temperature near 45° C. • Mobile phase: The pH value of a mixed test solution containing 0.008 mol/L of disodium hydrogen phosphate solution/methanol/40% aqueous tetrabutylammonium hydroxide solution (385:110:1.3 (volume ratio)) was adjusted to 7.5 by adding phosphoric acid. • Flow rate: The flow rate was regulated so that the retention time of calcium levofolinate became about 10 minutes. • Internal standard solution: A solution prepared by adding water to 0.04 g of methyl parahydroxybenzoate so that the whole amount of solution is 100 ml.
About 80 ml of water for injection were added to a beaker (volume: 200 ml). Then, 0.56 g of sodium chloride, 0.3 g of tromethamine, and 1.375 g of calcium levofolinate (1.1 g, in terms of 5-formyl-(6S)-tetrahydrofolic acid) were added to it with bubbling of nitrogen gas, and the components were dissolved with stirring (this procedure was performed 5 times). Subsequently, 0.05 g, 0.075 g, 0.1 g, 0.2 g, or 0.3 g of ascorbic acid was added to each solution, and was dissolved with stirring, to prepare five solutions. Thereafter, in the case where the addition amount of ascorbic acid is 0.05 g, 0.075 g, or 0.1 g, the pH value of each solution was regulated to 8.7 by adding 5% hydrochloric acid. In the case where the addition amount of ascorbic acid is 0.2 g, or 0.3 g, the pH value of each solution was regulated to 8.7 by adding 1% aqueous sodium hydroxide solution dropwise. Water for injection was further added to each solution to adjust the total volume of the solution to 100 ml. Subsequently, the bubbling of nitrogen gas was stopped, and each solution was filtered with a filtration filter, thereby to yield a solution for injection. Subsequently, each of five 5 ml-glass ampules the inside space of which had been substituted by nitrogen gas, was filled with 5 ml of the resultant solution for injection, and was sealed by heating.
For each aqueous preparation obtained as above, a test evaluating stability at 60° C. was performed by measuring the remaining calcium levofolinate content by the high performance liquid chromatography method.

[3] = format: physicochemical; settings: buffer, 13 mg/mL, pH 6.2
Description: as §1, §2
About 1100 ml of water for injection were added to a beaker. Then, 8.04 g of sodium chloride, 3.6 g of tromethamine, 3.6 g of ascorbic acid, and 1.2 g of sodium pyrosulfite were added thereto with bubbling of nitrogen gas, and the components were dissolved with stirring. To the resultant solution were added 15.62 g of calcium levofolinate, which were dissolved with stirring. Thereafter, the pH value of the solution was adjusted to 6.2 by adding 5% hydrochloric acid solution dropwise. Water for injection was further added to the solution to adjust the total volume to 1200 ml. Subsequently, the bubbling of nitrogen gas was stopped, and the solution was filtered with a filtration filter, thereby to yield a solution for injection. A 5 ml-syringe made of polypropylene, the inside space of which had been substituted by nitrogen gas, was filled with 5 ml of the resultant solution for injection, followed by steam sterilization under high pressure at 105° C. for 30 minutes. The thus-sterilized syringe was packaged together with a deoxidant, AGELESS ZP-50 (trade name, Mitsubishi Gas Chemical Company, Inc. Japan) by using a plastic film with high air impermeability.
For an aqueous preparation as obtained above, a stability test (60° C./75% RH, and 40° C./75% RH) was performed by measuring the content of calcium levofolinate remaining after storage for a certain period by the high performance liquid chromatography method.

[4] = Transmittance and coloring of the aqueous solution during storage; format: physicochemical; settings: aqueous solution
Excerpt: The suppressing effect can be attained by the action of ascorbic acid which has been stabilized by sodium pyrosulfite.

In the case of `Nc1nc(=O)c2c([nH]1)NC[C@H](CNc1ccc(C(=O)N[C@@H](CCC(=O)O)C(=O)O)cc1)N2C=O` [calcium levofolinate, (6S)-N-[4-[[(2-amino-5-formyl-1,4,5,6,7,8-hexahydro-4-oxo-6-pteridinyl)methyl]amino]benzoyl]-L-glutamic acid], the “change of pH value of the aqueous solution during storage” value [1] is reported as “gradually changes to an acid region”, the “remaining calcium levofolinate content compared with the initial value (100)” value ([2]; ascorbic acid 0.05%, 1 month) is reported as 84.5 and the “remaining calcium levofolinate content compared with the initial value (100)” value ([2]; ascorbic acid 0.05%, 1 week) is reported as 97.0. The “remaining calcium levofolinate content compared with the initial value (100)” value ([2]; ascorbic acid 0.05%, 2 weeks) was 92.1, the “remaining calcium levofolinate content compared with the initial value (100)” value ([2]; ascorbic acid 0.05%, 3 weeks) was 90.3 and the “calcium levofolinate content, Initial value (100)” value ([2]; ascorbic acid 0.05%) was 100. For the same compound, the “remaining calcium levofolinate content compared with the initial value (100)” value ([2]; ascorbic acid 0.075%, 1 month) was 85.7, the “remaining calcium levofolinate content compared with the initial value (100)” value ([2]; ascorbic acid 0.075%, 1 week) was 97.1 and the “remaining calcium levofolinate content compared with the initial value (100)” value ([2]; ascorbic acid 0.075%, 2 weeks) was 91.5. The “remaining calcium levofolinate content compared with the initial value (100)” value ([2]; ascorbic acid 0.075%, 3 weeks) was 90.9, the “calcium levofolinate content, Initial value (100)” value ([2]; ascorbic acid 0.075%) was 100 and the “remaining calcium levofolinate content compared with the initial value (100)” value ([2]; ascorbic acid 0.1%, 1 month) was 84.9. For the same compound, the “remaining calcium levofolinate content compared with the initial value (100)” value ([2]; ascorbic acid 0.1%, 1 week) was 97.3, the “remaining calcium levofolinate content compared with the initial value (100)” value ([2]; ascorbic acid 0.1%, 2 weeks) was 92.2 and the “remaining calcium levofolinate content compared with the initial value (100)” value ([2]; ascorbic acid 0.1%, 3 weeks) was 89.3. For the same compound, the “calcium levofolinate content, Initial value (100)” value ([2]; ascorbic acid 0.1%) was 100, the “remaining calcium levofolinate content compared with the initial value (100)” value ([2]; ascorbic acid 0.2%, 1 month) was 83.4 and the “remaining calcium levofolinate content compared with the initial value (100)” value ([2]; ascorbic acid 0.2%, 1 week) was 96.6. The “remaining calcium levofolinate content compared with the initial value (100)” value ([2]; ascorbic acid 0.2%, 2 weeks) was 91.5, the “remaining calcium levofolinate content compared with the initial value (100)” value ([2]; ascorbic acid 0.2%, 3 weeks) was 88.6 and the “calcium levofolinate content, Initial value (100)” value ([2]; ascorbic acid 0.2%) was 100. The “remaining calcium levofolinate content compared with the initial value (100)” value ([2]; ascorbic acid 0.3%, 1 month) was 82.0, the “remaining calcium levofolinate content compared with the initial value (100)” value ([2]; ascorbic acid 0.3%, 1 week) was 96.1 and the “remaining calcium levofolinate content compared with the initial value (100)” value ([2]; ascorbic acid 0.3%, 2 weeks) was 90.5. For the same compound, the “remaining calcium levofolinate content compared with the initial value (100)” value ([2]; ascorbic acid 0.3%, 3 weeks) was 87.7, the “calcium levofolinate content, Initial value (100)” value ([2]; ascorbic acid 0.3%) was 100 and the “remaining ratio (%) of calcium levofolinate” value ([3]; 0 months) was 100%. The “remaining ratio (%) of calcium levofolinate” value ([3]; 0 weeks) was 100%, the “remaining ratio (%) of calcium levofolinate” value ([3]; 1 month) was 101.2% and the “remaining ratio (%) of calcium levofolinate” value ([3]; 2 months) was 100.2%. The “remaining ratio (%) of calcium levofolinate” value ([3]; 4 months) was 95.7%, the “remaining ratio (%) of calcium levofolinate” value ([3]; 6 months) was 92.8% and the “remaining ratio (%) of calcium levofolinate” value ([3]; 168 h) was 99.0%. The “remaining ratio (%) of calcium levofolinate” value ([3]; 336 h) was 97.5%, the “remaining ratio (%) of calcium levofolinate” value ([3]; 504 h) was 95.8% and the “remaining ratio (%) of calcium levofolinate” value ([3]; 672 h) was 94.3%. For the same compound, the “transmittance of the aqueous solution during storage” value [4] was “lowers gradually”.
